Experimental data taken from the supplement of paper PMC4862054.

How the values were obtained:
Settings in all cases: incubation time: 72 h
DU-4475 [1] = test: normalised viability (% of control), CellTiter-Blue; higher = more viable cells (about 100 = DMSO control)
Procedure, shortened: (§1)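 Vehicle (100) and a positive kill control (0) anchored the normalisation of each plate, and Z'-factor was used for quality control. Breast cancer cell lines in 20 µl suspension were incubated 72 h over compound in 5 µl medium in 384-well plates, followed by CellTiter-Blue at 560/590 nm. The value is normalised viability at a single listed concentration of the series.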

HCC1937 [2] = test: as above
Procedure, shortened: as §1

MDA-MB-231 [3] = test: as above
Procedure, shortened: as §1

MDA-MB-468 [4] = test: as above
Procedure, shortened: as §1

MFM-223 = test: as above
Procedure, shortened: as §1

CAL-51 [5] = test: as above
Procedure, shortened: as §1

HDQ-P1 = test: as above
Procedure, shortened: as §1

CAL-120 = test: as above
Procedure, shortened: as §1

MDA-MB-436 = test: as above
Procedure, shortened: as §1

HCC1599 [6] = test: as above
Procedure, shortened: as §1

Hs578T [7] = test: as above
Procedure, shortened: as §1

CAL-148 [8] = test: as above
Procedure, shortened: as §1

SK-BR-3 = test: as above
Procedure, shortened: as §1

MDA-MB-453 = test: as above
Procedure, shortened: as §1

BT-549 [9] = test: as above
Procedure, shortened: as §1

HCC1143 [10] = test: as above
Procedure, shortened: as §1

BT-474 = test: as above
Procedure, shortened: as §1

CAL-85-1 = test: as above
Procedure, shortened: as §1

HCC1937 [11] = test: drug sensitivity score (DSS), CellTox Green (DSS (AUC-based score)); higher = stronger drug effect (viability inhibition or cytotoxicity); extreme values may be limits of the assay
Procedure, shortened: (§2)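 Breast cancer cells were seeded into 384-well plates containing compound at 5 concentrations in 10-fold steps over a compound-specific 10,000-fold range and incubated 72 h. After CellTox Green and CellTiter-Glo readings, each plate was normalised to 0.1 % DMSO and a positive kill control. The drug sensitivity score rests on the area under the fitted dose-response curve.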

Hs578T [12] = test: as above
Procedure, shortened: as §2

DU-4475 [13] = test: normalised viability (% of control), CellTiter-Blue; higher = more viable cells (about 100 = DMSO control); remark: listed apart in the source
Procedure, shortened: as §1

MDA-MB-231 [14] = test: as above; remark: listed apart in the source
Procedure, shortened: as §1

MDA-MB-468 [15] = test: as above; remark: listed apart in the source
Procedure, shortened: as §1

CAL-51 [16] = test: as above; remark: listed apart in the source
Procedure, shortened: as §1

HCC1599 [17] = test: as above; remark: listed apart in the source
Procedure, shortened: as §1

Hs578T [18] = test: as above; remark: listed apart in the source
Procedure, shortened: as §1

CAL-148 [19] = test: as above; remark: listed apart in the source
Procedure, shortened: as §1

BT-549 [20] = test: as above; remark: listed apart in the source
Procedure, shortened: as §1

HCC1143 [21] = test: as above; remark: listed apart in the source
Procedure, shortened: as §1

O=c1[nH]cc(F)c(=O)[nH]1 [Fluorouracil]
Settings	normalised viability [%]
BT-474, 100 nM	116
BT-549 [9], 100 nM	107
BT-549 [20], 10 nM	101
BT-549 [20], 1000 nM	90.3
BT-549 [20], 10000 nM	74.2
CAL-51 [5], 10 nM	105
CAL-51 [16], 3 nM	105
CAL-51 [16], 30 nM	100
CAL-51 [16], 100 nM	92.9
CAL-85-1, 10 nM	94.7
CAL-120, 100 nM	111
CAL-148 [8], 10 nM	108
CAL-148 [19], 3 nM	111
CAL-148 [19], 30 nM	109
CAL-148 [19], 100 nM	103
DU-4475 [1], 10 nM	97
DU-4475 [13], 3 nM	120
DU-4475 [13], 30 nM	103
DU-4475 [13], 100 nM	85.6
HCC1143 [10], 100 nM	97.7
HCC1143 [21], 10 nM	99.5
HCC1143 [21], 1000 nM	91
HCC1143 [21], 10000 nM	64.9
HCC1599 [6], 100 nM	102
HCC1599 [17], 10 nM	102
HCC1599 [17], 1000 nM	96.1
HCC1599 [17], 10000 nM	76.9
HCC1937 [2], 100 nM	104
HDQ-P1, 10 nM	103
Hs578T [7], 100 nM	115
Hs578T [18], 10 nM	111
Hs578T [18], 1000 nM	106
Hs578T [18], 10000 nM	55.6
MDA-MB-231 [3], 100 nM	106
MDA-MB-231 [14], 10 nM	104
MDA-MB-231 [14], 1000 nM	97.5
MDA-MB-231 [14], 10000 nM	64.7
MDA-MB-436, 100 nM	89.1
MDA-MB-453, 10 nM	116
MDA-MB-468 [4], 100 nM	104
MDA-MB-468 [15], 10 nM	99.4
MDA-MB-468 [15], 1000 nM	103
MDA-MB-468 [15], 10000 nM	76
MFM-223, 100 nM	96.5
SK-BR-3, 100 nM	87

Settings	drug sensitivity score
HCC1937 [11]	0
Hs578T [12]	0

C[C@@H]1C=C2C(=O)O[C@@H]3CC[C@H](C1)[C@]23O [Galiellalactone]
Settings	normalised viability [%]
BT-474, 500 nM	136
BT-549 [9], 500 nM	105
BT-549 [20], 50 nM	83.9
BT-549 [20], 5000 nM	59.9
BT-549 [20], 50000 nM	7.58
CAL-51 [5], 50 nM	106
CAL-51 [16], 15 nM	108
CAL-51 [16], 150 nM	104
CAL-51 [16], 500 nM	102
CAL-85-1, 50 nM	97.4
CAL-120, 500 nM	85.6
CAL-148 [8], 50 nM	104
CAL-148 [19], 15 nM	99.7
CAL-148 [19], 150 nM	108
CAL-148 [19], 500 nM	103
DU-4475 [1], 50 nM	117
DU-4475 [13], 15 nM	103
DU-4475 [13], 150 nM	92.2
DU-4475 [13], 500 nM	95.5
HCC1143 [10], 500 nM	106
HCC1143 [21], 50 nM	90.8
HCC1143 [21], 5000 nM	104
HCC1143 [21], 50000 nM	86.9
HCC1599 [6], 500 nM	91.1
HCC1599 [17], 50 nM	95.2
HCC1599 [17], 5000 nM	89.8
HCC1599 [17], 50000 nM	67.5
HCC1937 [2], 500 nM	90.9
HDQ-P1, 50 nM	113
Hs578T [7], 500 nM	101
Hs578T [18], 50 nM	121
Hs578T [18], 5000 nM	115
Hs578T [18], 50000 nM	50.9
MDA-MB-231 [3], 500 nM	91.8
MDA-MB-231 [14], 50 nM	100
MDA-MB-231 [14], 5000 nM	61.4
MDA-MB-231 [14], 50000 nM	7.78
MDA-MB-436, 500 nM	90.1
MDA-MB-453, 50 nM	110
MDA-MB-468 [4], 500 nM	105
MDA-MB-468 [15], 50 nM	101
MDA-MB-468 [15], 5000 nM	80.4
MDA-MB-468 [15], 50000 nM	33.6
MFM-223, 500 nM	92.8
SK-BR-3, 500 nM	96.4

Settings	drug sensitivity score
HCC1937 [11]	0
Hs578T [12]	0
